Experimental findings from patent US12636292B2, “Method and composition for reversing and/or inhibiting atherosclerosis” (ARJIL BIOTECH HOLDING COMPANY LIMITED, priority 2019, dated 2026) are described below.

The test system of one experiment is TNF-α. Briefly: ELISA of TNF-α in RAW264.7 macrophages. The class given is cell-based, mouse. To be noted: 20 μg/mL with 0.75 mM palm acid oil (856.9 without). (In general: In an ELISA, binding on a coated surface is turned into a signal by an enzyme label.)
The subject of a further experiment is CD36. The experiment can be described thus: Immunofluorescence staining of CD36 in vascular endothelial cells. The class given is cell-based, mouse. To be noted: 20 μg/mL with 0.75 mM palm acid oil. On the procedure: Vascular endothelial cells (SVEC4-10) were purchased from the Cell Bank of Hsin-Chu Food Industry Development Institute (FIRDI, Cat no: BCRC-60220). SVEC4-10 cells were cultured in high-glucose DMEM (Dulbecco's Modified Eagle Medium) (Gibco BRL, Grand Island, NY, USA) and supplemented with 10% Fetal Bovine Serum (FBS) (HyClone, Logan, UT, USA), 1.5 g/L sodium bicarbonate, 0.11 g/L sodium pyruvate, 4 mM L-glutamine, 100 U/mL penicillin, and 100 μg/mL streptomycin (Gibco BRL, Grand Island, NY, USA).
These cells were grown in a culture medium and maintained in a humidified incubator at 37° C. and 5% CO2. […]
We used immunofluorescence staining to examine expressions of KLF4 and CD36. […] Note that this step needs to be protected from light at the beginning Nuclei were stained with 1 μg/mL diamino-2-phenilindole (DAPI) (D3286, Sigma-Aldrich Co., St. Louis, MO, USA) for 10 min at room temperature after washing three times with PBS and mounted with a fluorescent protectant-containing adhesive to reduce fluorescence decay. Fluorescent images were obtained using a Leica DM IRB inverted fluorescence microscope (Leica Microsystems, Wetzlar, Germany), and analysis was performed using Leica Application Suite software (LAS) V4.12 s (Leica Microsystems, Wetzlar, Germany). The Rhodamine fluorescence-labeled cytoskeleton was visualized at 565 nm by exciting cells at 540 nm. […]

Experiment [1] concerns vascular endothelial cells. The experiment can be described thus: Cellular lipid deposition assay (oil red O staining). The class given is cell-based. Conditions: different concentrations of antcin K. On the procedure:
We used oil red O staining which was clearly described in a previous report (Luo et al., 2021) to examine cellular lipid deposition. RAW264.7 macrophages were fixed with 2% paraformaldehyde for 10-15 min at room temperature, washed three times with phosphate-buffered saline (PBS) and twice with ddH2O, and stained with 5% oil red O dye for 15 min at room temperature, then the supernatant was discarded. Vascular endothelial cells and RAW264.7 macrophages were infiltrated with 60% isopropanol, washed twice with ddH2O, and photographed with an optical microscope (Olympus BH2 system light microscope, Olympus Corporation, Tokyo, Japan).

A short description of experiment [2]: DPPH free radical scavenging assay. Type of experiment: biochemical. On the procedure: The antioxidant capacity of antcin K was examined by 1,1-diphenyl-2-trinitrophenylhydrazyl (DPPH) assay in this study. We formulated DPPH (D9132, Sigma-Aldrich Co., St. Louis, MO, USA) at a concentration of 1.5 mM per 1 mL and added 9 mL of methanol (322415, Sigma-Aldrich Co., St. Louis, MO, USA) to the mixed solution. The 100 μL of DPPH and 100 μL of 10, 20, and 50 μg/mL of test samples were taken, shaken, and mixed evenly, then placed at room temperature for 30 min in the dark. After that, the absorbance was measured at 517 nm using an ultraviolet/visible light spectrometer (Microplate Spectrophotometer, uQuant, Biotek Instruments, Inc., Winooski, VT, USA).
Different concentrations of test samples were prepared and compared with the standard L-Ascorbic acid (L-AA) (A5960, Sigma-Aldrich Co., St. Louis, MO, USA). Based on the reduction percentage of the absorbance value observed in the control group, the antioxidant capacity of each test sample to scavenge DPPH free radicals can be judged. After that, the test sample with the most robust ability to scavenge DPPH free radicals was selected and repeated three times. The formula is as follows: DPPH free radical scavenging rate (%)=(1−(absorption value of experimental group/absorption value of control group))×100.
On the technique in general: The DPPH test is a chemical assay of radical scavenging.

The next experiment has as its system RAW264.7 macrophages. Briefly: Cellular migration assay (transwell). The class given is cell-based. To be noted: 48 h. The procedure: RAW264.7 macrophage was purchased from the Hsin-Chu Food Industry Development Institute Cell Bank (FIRDI, Cat no: BCRC-60001). The cell culture medium contains high-glucose DMEM (Gibco BRL, Grand Island, NY, USA), 10% FBS, 1.5 g/L sodium bicarbonate, 0.11 g/L sodium pyruvate, 4 mM L-glutamine, 100 U/mL penicillin, and 100 μg/mL streptomycin. These cells were maintained in a humidified incubator at 37° C. and 5% CO2. After collecting the cells with a spatula, for each 24-well culture plate, all cell densities were adjusted to 1×10^5 cells per well for migration assays.
We used a cellular migration assay to examine the cellular migration ability of RAW 264.7 macrophages toward vascular endothelial cells with high-fat damage. The cellular migration assay has been clearly described in a previous report (Hwang et al., 2021). Transwells (Corning, New York, NY, USA) with 8.0 μm pore size were used in this experiment for cell migration assays. In total, 1×10^5 RAW264.7 macrophage, labeled with the red fluorescent dye of 1,1′-Dioctadecyl-6,6′-Di(4-Sulfophenyl) (SP-Di1C18(3)), was added to the upper layer of transwell after 48 h. […] Images were taken with a fluorescence microscope (Leica Microsystems, Wetzlar, Germany), and analysis was performed using Leica Application Suite software (LAS) V4.12 s (Leica Microsystems, Wetzlar, Germany) after 48 h of culture.

As for `C=C(CC[C@@H](C)[C@H]1CC[C@H]2C3=C(C(=O)C[C@]12C)[C@@]1(C)CC[C@H](O)[C@](C)(O)C1CC3O)C(C)C(=O)O` (stereo partly drawn) [antcin K, 3a,4b,7b-tri-hydroxy4a-methylergosta-8,24(28)-dien-11-on-26-oic acid], the “expression of TNF-α of RAW264.7 macrophages” value with TNF-α was found to be 690.7 pg/mL. Further, the “expression of CD36 in palm oil-treated vascular endothelial cells” value in the experiment on CD36 was “decreased”. The “lipid deposition in palm acid oil-treated vascular endothelial cells” value in experiment [1] is “decreased”. In addition, the figures for the “free radicals scavenging efficiency (DPPH)” value in experiment [2] (20 μg/mL) and in experiment [2] (50 μg/mL) were 96.82% and 98.81%, respectively. The “migration of RAW264.7 macrophages to palm acid oil-treated vascular endothelial cells” value in the experiment on RAW264.7 macrophages is listed as “enhanced”.
